{
  "source": "patent US20240238459A1",
  "about": "“Granzyme-Activatable Membrane-Interacting Peptides and Methods of Use” (priority 2021, published 2024)",
  "type_in_all_cases": "in vivo, mouse",
  "key": {"[1]": {"tested_on": "L. monoctyogenes", "assay": "PET in L. monoctyogenes myositis model", "source_text": "Neither M. marinum nor the L. monoctyogenes induced ^64Cu-GRIP B uptake in live bacterial abscesses compared to heat killed controls."}, "[2]": {"tested_on": "E. coli", "assay": "PET/CT and biodistribution in E. coli myositis in germline GZMB knockout mice", "experimental": "To confirm the radiotracer uptake in the abscess was due to granzyme B, imaging studies were performed in germline GZMB knockout mice. The mice received live and heat killed E. Coli and were injected and imaged following the same protocol for wild type mice."}, "[3]": {"tested_on": "P. aeruginosa", "assay": "PET in P. aeruginosa myositis model", "source_text": "Performing additional myositis studies with other bacterial strains yielded unexpected and variable granzyme “responses” on PET. […] In both mouse cohorts, radiotracer uptake in the treated muscles was higher than in the normal muscle."}, "[4]": {"tested_on": "RAJI tumors", "assay": "PET/CT in mice bearing RAJI xenografts given anti-CD19 CAR T cells", "experimental": "Mice bearing subcutaneous RAJI xenografts and administered anti-CD19 CAR T cells were imaged using ^64Cu-GRIP B PET/CT. Peripheral blood mononuclear cells were obtained from normal blood donor leukoreduction filters (Vitalant Blood Services). CD4+ and CD8+ T-cells were isolated via magnetic bead selection, activated with anti-CD3/CD28 beads, lentivirally transduced with a validated anti-CD19 CAR construct, and expanded in vitro with IL-2. In parallel, mice were injected with 1e6 Raji cells subcutaneously in the right flank. At tumor size of ˜400 mm3 5e6 CAR-expressing T-cells were implanted IV into each mouse. Mice received anti-CD19 CAR T cells or empty CAR Ts. After 6 days, the mice received ^64Cu-GRIP B (˜300 uCi/mouse) and were imaged from 0-4 hours post injection. The data depicted in FIG. 7 show images and region of interest analysis gathered at 4 hours post injection.\nAdditionally, mice bearing orthotopic RAJI xenografts and treated with activated CAR T cell based therapy were imaged using ^64Cu-GRIP B PET/CT. Raji cells (1e5) were administered orthotopically via tail vein injection to encourage seeding in abdominal tissues. This model was evaluated as subcutaneous Raji tumors are known to be intrinsically immunosuppressive.\nPeripheral blood mononuclear cells were obtained from normal blood donor leukoreduction filters (Vitalant Blood Services). […]"}, "[5]": {"tested_on": "CT26 tumors", "assay": "Biodistribution in germline GZMB knockout mice bearing CT26 tumors, vehicle or CPI", "experimental": "Lastly, to confirm that GZMB is responsible for post treatment changes in ^64Cu-GRIP B biodistribution, germline homozygous GZMB knockout mice were inoculated with CT26 tumors and the relative biodistribution of ^64Cu-L-GRIP B in mice was assessed after treatment with vehicle or CPIs.\nTo confirm this, post treatment changes in tumoral uptake of ^64Cu-GRIP B were assessed for correlation with antitumor effects."}, "[6]": {"tested_on": "EMT6", "assay": "Biodistribution in mice bearing EMT6 tumors treated with vehicle or CPI", "conditions": "EMT6 cohort", "experimental": "(§1) Next, the biodistribution of ^64Cu-GRIP B and ^64Cu-D-GRIP B was compared in mice bearing MC38 (mouse colorectal cancer) or EMT6 (mouse mammary breast carcinoma) xenografts. The mice were treated with vehicle or anti-PD1 and anti-CTLA4 CPIs following the schema used for the CT26 cohort."}, "[7]": {"tested_on": "S. aureus", "assay": "PET in S. aureus myositis model", "source_text": "Granzyme B responses to other bacterial strains has also been tested. Live or heat killed S. aureus were implanted into the deltoids of mice to understand immune responses on PET. […] One possibility for the difference in response is that granzyme B is not uniformly employed to attack all pathogens, and the immune cells may customize their granzyme response based on the features of the pathogen."}, "[8]": {"tested_on": "MC38", "assay": "Biodistribution and PET/CT in mice bearing MC38 tumors treated with vehicle or CPI", "conditions": "MC38 cohort, biodistribution", "experimental": "as §1"}},
  "note": "Peptide text beside a SMILES is read from it. * marks the point of attachment. DOTA = O=C(O)CN1CCN(CC(=O)O)CCN(CC(=O)*)CCN(CC(=O)O)CC1; Ahx = NCCCCCC(=O)O",
  "data": [
    {"smiles": "CC[C@H](C)[C@H](NC(=O)[C@H](CCCCN)NC(=O)CNC(=O)[C@H](CC(C)C)NC(=O)[C@H](Cc1ccccc1)NC(=O)[C@H](CCCCN)NC(=O)[C@H](CO)NC(=O)[C@H](Cc1ccccc1)NC(=O)[C@H](Cc1c[nH]c2ccccc12)NC(=O)[C@H](CCC(N)=O)NC(=O)[C@@H](NC(=O)[C@H](Cc1ccccc1)NC(=O)CCCCCNC(=O)CN1CCN(CC(=O)O)CCN(CC(=O)O)CCN(CC(=O)O)CC1)C(C)C)C(=O)N[C@@H](CCC(=O)O)C(=O)N1CCC[C@H]1C(=O)N[C@@H](CC(=O)O)C(=O)N[C@H](C(=O)N[C@@H](CO)C(=O)N[C@@H](CCC(N)=O)C(=O)N[C@H](C(=O)N[C@@H](CCC(N)=O)C(=O)N[C@@H](CC(=O)O)C(=O)N1CCC[C@H]1C(=O)N[C@@H](CC(N)=O)C(=O)N[C@@H](CC(=O)O)C(=O)N[C@@H](CCC(N)=O)C(=O)N[C@@H](Cc1ccc(O)cc1)C(=O)N[C@@H](CCC(=O)O)C(=O)N1CCC[C@H]1C(=O)N[C@@H](Cc1ccccc1)C(=O)O)C(C)C)C(C)C", "note": "[^64Cu-GRIP B, metal not drawn] ({DOTA-Ahx}-FVQWFSKFLGKIEPDVSQVQDPNDQYEPF-OH)", "values": [
      {"measurement": "radiotracer uptake compared to normal muscle", "setting": "[1]", "value": "significant increase"},
      {"measurement": "uptake in live bacterial abscesses compared to heat killed controls", "setting": "[1]", "value": "did not impact"},
      {"measurement": "uptake in infected muscle, GZMB knockout compared to wild type", "setting": "[2]; PET/CT and biodistribution", "value": "lower"},
      {"measurement": "difference in tracer uptake between normal muscle, live and heat killed E. Coli treated muscle", "setting": "[2]; knockout strain", "value": "negligible difference"},
      {"measurement": "uptake in treated muscles versus normal muscle", "setting": "[3]", "value": "higher"},
      {"measurement": "uptake in live bacterial infection versus contralateral heat killed bacteria", "setting": "[3]; deltoid muscles", "value": "higher"},
      {"measurement": "uptake in tumor bearing livers", "setting": "[4]; orthotopic RAJI tumors in liver, CD19 CAR Ts, ROI and post mortem dosimetry", "value": "induce ^64Cu-GRIP B uptake in tumor bearing livers"},
      {"measurement": "detection of granzyme B production from activated CAR T cells", "setting": "[4]; subcutaneous and orthotopic RAJI, anti-CD19 CAR T vs empty CAR Ts, 4 hours post injection", "value": "can detect granzyme B production from activated CAR T cells"},
      {"measurement": "correlation of tumoral uptake or tumor to blood ratio with percent changes in tumor volume", "setting": "[5]; GZMB knockout mouse background", "value": "neither tumoral uptake nor tumor to blood ratio of ^64Cu-GRIP B correlated"},
      {"measurement": "post treatment changes in radiotracer uptake in tumors and spleen, CPI compared to vehicle", "setting": "[5]; germline homozygous GZMB knockout mice, CT26 tumors", "value": "No significant post treatment changes"},
      {"measurement": "tumoral uptake after CPI compared to controls", "setting": "[6]", "value": "significant increase"},
      {"measurement": "granzyme B response in live bacterial abscess compared to that of E. coli", "setting": "[7]; S. aureus", "value": "more modest granzyme B response"},
      {"measurement": "uptake in live bacterial abscess versus heat killed abscess", "setting": "[7]; S. aureus", "value": "significantly higher"},
      {"measurement": "time course of radiotracer uptake", "setting": "[7]; S. aureus deltoid implant", "value": "rising rapidly from 0-6 hours post injection and plateauing from 6-24 hours"},
      {"measurement": "tumoral uptake after CPI compared to controls", "setting": "[8]", "value": "significant increase"}
    ]}
  ]
}
